# Results reported in patent US20240217978A1 (CHONG KUN DANG PHARMACEUTICAL CORP., priority 2021, published 2024).
# Molecular target: human adenosine A2a receptor (Homo sapiens (Human), UniProt P29274)
# Assay: A2a receptor binding affinity, [3H]-NECA radioligand binding test
# Settings: [3H]-NECA 37 nM; membrane from HEK-293 cells transfected with human adenosine A2a receptor
# Procedure, shortened: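 IC50 values (μM) come from displacement of [3H]-NECA, used at 37 nM final, on human A2a receptor membranes from transfected HEK-293 cells. Incubation lasted one hour at room temperature in Tris/MgCl2/EDTA buffer, pH 7.4; filter-bound radioactivity was counted by scintillation.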
# Chain of human adenosine A2a receptor (P29274 whole entry): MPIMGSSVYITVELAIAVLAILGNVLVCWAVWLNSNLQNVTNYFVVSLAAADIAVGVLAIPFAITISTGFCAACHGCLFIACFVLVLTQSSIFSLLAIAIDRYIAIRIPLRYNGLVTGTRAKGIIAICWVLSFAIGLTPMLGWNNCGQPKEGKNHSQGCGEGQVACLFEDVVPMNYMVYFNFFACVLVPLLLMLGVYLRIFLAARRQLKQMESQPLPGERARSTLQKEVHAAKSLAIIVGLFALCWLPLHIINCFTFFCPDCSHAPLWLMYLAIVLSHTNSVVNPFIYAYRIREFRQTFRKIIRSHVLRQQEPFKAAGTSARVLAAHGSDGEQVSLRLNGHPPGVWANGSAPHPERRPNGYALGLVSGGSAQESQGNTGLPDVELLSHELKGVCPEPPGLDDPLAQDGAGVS
row,Structure (SMILES),IC50 [nM]
1,"CC(C)(F)CN1CCN(C(=O)[C@@H](Nc2nc(N)n3nc(-c4ccco4)nc3n2)C2CCCCC2)CC1 [Example 147, (S)-2-((7-amino-2-(furan-2-yl)-[1,2,4]triazolo[1,5-a][1,3,5]triazin-5-yl)amino)-2-cyclohexyl-1-(4-(2-fluoro-2-methylpropyl)piperazin-1-yl)ethan-1-one]",3
2,"Nc1nc(N[C@H](C(=O)N2CCN(CC(F)(F)F)CC2)C2CCCCC2)nc2nc(-c3ccco3)nn12 [Example 148, (S)-2-((7-amino-2-(furan-2-yl)-[1,2,4]triazolo[1,5-a][1,3,5]triazin-5-yl)amino)-2-cyclohexyl-1-(4-(2,2,2-trifluoroethyl)piperazin-1-yl)ethan-1-one]",8
3,"Nc1nc(N2CCC[C@H]2C(=O)N2CCN(c3ccc(C(F)(F)F)cc3F)CC2)nc2nc(-c3ccco3)nn12 [Example 149, (S)-(1-(7-amino-2-(furan-2-yl)-[1,2,4]triazolo[1,5-a][1,3,5]triazin-5-yl)pyrrolidin-2-yl)(4-(2-fluoro-4-(trifluoromethyl)phenyl)piperazin-1-yl)methanone]",0.5
4,"Nc1nc(N2CCC[C@H]2C(=O)N2CCN(c3ccccc3C(F)(F)F)CC2)nc2nc(-c3ccco3)nn12 [Example 150, (S)-(1-(7-amino-2-(furan-2-yl)-[1,2,4]triazolo[1,5-a][1,3,5]triazin-5-yl)pyrrolidin-2-yl)(4-(2-(trifluoromethyl)phenyl)piperazin-1-yl)methanone]",0.1
5,"Nc1nc(N2CCC[C@H]2C(=O)N2CCN(c3ccccc3)CC2)nc2nc(-c3ccco3)nn12 [Example 151, (S)-(1-(7-amino-2-(furan-2-yl)-[1,2,4]triazolo[1,5-a][1,3,5]triazin-5-yl)pyrrolidin-2-yl)(4-phenylpiperazin-1-yl)methanone]",13
6,"CCC1CCC(N2CCN(C(=O)[C@@H]3CCCN3c3nc(N)n4nc(-c5ccco5)nc4n3)CC2)CC1 (stereo partly drawn) [Example 152, (S)-(1-(7-amino-2-(furan-2-yl)-[1,2,4]triazolo[1,5-a][1,3,5]triazin-5-yl)pyrrolidin-2-yl)(4-(4-ethylcyclohexyl)piperazin-1-yl) methanone]",19
7,"CC(C)C1CCC(N2CCN(C(=O)[C@@H]3CCCN3c3nc(N)n4nc(-c5ccco5)nc4n3)CC2)CC1 (stereo partly drawn) [Example 153, (S)-(1-(7-amino-2-(furan-2-yl)-[1,2,4]triazolo[1,5-a][1,3,5]triazin-5-yl)pyrrolidin-2-yl)(4-(4-isopropylcyclohexyl)piperazin-1-yl)methanone]",12
8,"CC(C)(C)C1CCC(N2CCN(C(=O)[C@@H]3CCCN3c3nc(N)n4nc(-c5ccco5)nc4n3)CC2)CC1 (stereo partly drawn) [Example 154, (S)-(1-(7-amino-2-(furan-2-yl)-[1,2,4]triazolo[1,5-a][1,3,5]triazin-5-yl)pyrrolidin-2-yl)(4-(4-(tert-butyl)cyclohexyl)piperazin-1-yl)methanone]",10
9,"Nc1nc(N2CCC[C@H]2C(=O)N2CCN(C3CCC(C(F)(F)F)CC3)CC2)nc2nc(-c3ccco3)nn12 (stereo partly drawn) [Example 155, (S)-(1-(7-amino-2-(furan-2-yl)-[1,2,4]triazolo[1,5-a][1,3,5]triazin-5-yl)pyrrolidin-2-yl)(4-(4-(trifluoromethyl)cyclohexyl)piperazin-1-yl)methanone]",11
10,"Nc1nc(N2CCC[C@H]2C(=O)N2CCN(C3CC4CCC3C4)CC2)nc2nc(-c3ccco3)nn12 (stereo partly drawn) [Example 156, ((S)-1-(7-amino-2-(furan-2-yl)-[1,2,4]triazolo[1,5-a][1,3,5]triazin-5-yl)pyrrolidin-2-yl)(4-(bicyclo[2.2.1]heptan-2-yl)piperazin-1-yl)methanone]",12
11,"Nc1nc(N2CCC[C@H]2C(=O)N2CC3CCC(C2)N3C(=O)c2ccccc2)nc2nc(-c3ccco3)nn12 [Example 157, (3-((7-amino-2-(furan-2-yl)-[1,2,4]triazolo[1,5-a][1,3,5]triazin-5-yl)-L-prolyl)-3,8-diazabicyclo[3.2.1]octan-8-yl)(phenyl)methanone]",6
12,"Nc1nc(N2CCC[C@H]2C(=O)N2C3CCC2CN(C(=O)c2ccccc2)C3)nc2nc(-c3ccco3)nn12 [Example 158, (8-((7-amino-2-(furan-2-yl)-[1,2,4]triazolo[1,5-a][1,3,5]triazin-5-yl)-L-prolyl)-3,8-diazabicyclo[3.2.1]octan-3-yl)(phenyl)methanone]",12
13,"C[C@@H]1CN(C(=O)c2ccccc2)CCN1C(=O)[C@@H]1CCCN1c1nc(N)n2nc(-c3ccco3)nc2n1 [Example 159, ((R)-4-((7-amino-2-(furan-2-yl)-[1,2,4]triazolo[1,5-a][1,3,5]triazin-5-yl)-L-prolyl)-3-methylpiperazin-1-yl)(phenyl)methanone]",9
14,"Nc1nc(N2CCC[C@H]2C(=O)N2CC3(CCN(C(=O)c4ccccc4)CC3)C2)nc2nc(-c3ccco3)nn12 [Example 160, (2-((7-amino-2-(furan-2-yl)-[1,2,4]triazolo[1,5-a][1,3,5]triazin-5-yl)-L-prolyl)-2,7-diazaspiro[3.5]nonan-7-yl)(phenyl)methanone]",4
15,"Nc1nc(N2CCC[C@H]2C(=O)N2CCC(C3CCN(C(=O)c4ccccc4)CC3)CC2)nc2nc(-c3ccco3)nn12 [Example 161, (1′-((7-amino-2-(furan-2-yl)-[1,2,4]triazolo[1,5-a][1,3,5]triazin-5-yl)-L-prolyl)-[4,4′-bipiperidin]-1-yl)(phenyl)methanone]",9
16,"CC[C@H](Nc1nc(N)n2nc(-c3ccco3)nc2n1)C(=O)N1CCN(c2ccc(F)cc2F)CC1 [Example 162, (S)-2-((7-amino-2-(furan-2-yl)-[1,2,4]triazolo[1,5-a][1,3,5]triazin-5-yl)amino)-1-(4-(2,4-difluorophenyl)piperazin-1-yl)butan-1-one]",8
17,"CCC[C@H](Nc1nc(N)n2nc(-c3ccco3)nc2n1)C(=O)N1CCN(c2ccc(F)cc2F)CC1 [Example 163, (S)-2-((7-amino-2-(furan-2-yl)-[1,2,4]triazolo[1,5-a][1,3,5]triazin-5-yl)amino)-1-(4-(2,4-difluorophenyl)piperazin-1-yl)pentan-1-one]",0.5
18,"CCCC[C@H](Nc1nc(N)n2nc(-c3ccco3)nc2n1)C(=O)N1CCN(c2ccc(F)cc2F)CC1 [Example 164, (S)-2-((7-amino-2-(furan-2-yl)-[1,2,4]triazolo[1,5-a][1,3,5]triazin-5-yl)amino)-1-(4-(2,4-difluorophenyl)piperazin-1-yl)hexan-1-one]",0.3
19,"CC(C)(C)[C@H](Nc1nc(N)n2nc(-c3ccco3)nc2n1)C(=O)N1CCN(c2ccc(F)cc2F)CC1 [Example 165, (S)-2-((7-amino-2-(furan-2-yl)-[1,2,4]triazolo[1,5-a][1,3,5]triazin-5-yl)amino)-1-(4-(2,4-difluorophenyl)piperazin-1-yl)-3,3-dimethylbutan-1-one]",0.6
20,"CCC(C)[C@H](Nc1nc(N)n2nc(-c3ccco3)nc2n1)C(=O)N1CCN(c2ccc(F)cc2F)CC1 (stereo partly drawn) [Example 166, (2S)-2-((7-amino-2-(furan-2-yl)-[1,2,4]triazolo[1,5-a][1,3,5]triazin-5-yl)amino)-1-(4-(2,4-difluorophenyl)piperazin-1-yl)-3-methylpentan-1-one]",0.08
